Source: patent publication US10167507B2, “Metabolic diseases-related odorant receptor genes and use thereof” (INDUSTRY-ACADEMIC COOPERATION FOUNDATION, YONSEI UNIVERSITY, priority 2010, dated 2019)

Experiments:
[1] = system: olfactory receptors in visceral fat tissue; experiment: OligoDNA microarray, visceral fat tissue of HFD mice fed odor components; type: in vivo, mouse; settings: supplemented to HFD-fed mouse 10 weeks
Description: DNA microarry analysis using RNAs of visceral fat and liver tissue was conducted by GENOCHECK (CO., LTD.). RNA samples were pooled from 10 mice in each experimental group and subjected to microarray experiments in triplicate for the test of reproducibility. NimbleGen Mouse Whole Oligo 12-plex chip used in this experiment was prepared by triplicating 42,576 genes using Mouse Genome Build 8 as database. In NimbleGen mouse Whole Oligo 12-plex chip, 137,090 spots excluded control group gene were spotted by 16 μm×16 μm size in 17.4 mm×13 mm size. 42,576 oligo included 137,145 genes which are known their functions and 5,431 transcripts and EST sequences which are unknown their functions. 10-50 μg of total RNA was added in oligo-dT primer, reverse transcriptase, dNTP, Cy3-dUTP and Cy5-dUTP, and reverse-transcripted according to the kit manufacturer's recommendations. The resultant was purified using cartridge, dried and dissolved in hybridization buffer solution (30 μL). The microarray was placed in hybridization cassette, heated at 95-100° C. for 5 min, mixed independently to each of RNA labeled with Cy3 and Cy5, and hybridized at 45° C. for 18 hrs. The slide was washed twice in solution containing 1×SSC and 0.1% SDS for 5 min, washed in 1×SSC for 5 min and dried to analyze.

[2] = system: olfactory receptors in liver tissue; experiment: OligoDNA microarray, liver tissue of HFD mice fed odor components; type: in vivo, mouse; settings: supplemented to HFD-fed mouse 10 weeks
Excerpt: (§1) The obesity-inducing control diet used in the test was high-fat diet (HFD: 40% fat calorie, 17 g lard+3% corn oil/100 g diet). Diets supplemented with an odor component had the same composition as HFD, except that each of various types of odor components (indol-3-carbinol, oleuropein, cedryl acetate, α-cedrene and piperine) having anti-obesity efficacy was contained in 0.02-0.05% concentration. Indo)-3-carbinol, oleuropein, cedryl acetate, a-cedrene and piperine were purchased from Sigma-Aldrich.
(§2) After adding Trizol agent to visceral fat or liver tissue, the mixture was homogenized and centrifuged at 12,000×g for 10 min at 4° C. The supernatant was transferred to a new tube to remove fat layer. Then, 200 μl of chloroform was added to the tube, followed by vortexing. The same procedure was repeated twice and then the supernatant was transferred to a new tube, followed by addition of isopropanol and the supernatant at 1:1 ratio. The mixture was vigorously shaken 10 times and then incubated for 10 min at room temperature, followed by centrifugation at 12,000×g for 10 min at 4° C. to remove the supernatant. After adding 1 mL of 70% ethanol to the remaining pellet, it was centrifuged at 7,500×g for 5 min at 4° C. After removing the ethanol, the RNA pellet contained in the tube was dried for 5 min at 4° C. and dissolved in nuclease-free water. The RNA sample concentration was measured at a wavelength of 260 nm and 280 nm using a UV/VIS spectrophotometer (Beckman coulter, DU730) and the integrity of RNA sample was verified by agarose gel electrophoresis.
(§3) DNA microarry analysis using RNAs of visceral fat and liver tissue was conducted by GENOCHECK (CO., LTD.). RNA samples were pooled from 10 mice in each experimental group and subjected to microarray experiments in triplicate for the test of reproducibility. NimbleGen Mouse Whole Oligo 12-plex chip used in this experiment was prepared by triplicating 42,576 genes using Mouse Genome Build 8 as database. In NimbleGen mouse Whole Oligo 12-plex chip, 137,090 spots excluded control group gene were spotted by 16 μm×16 μm size in 17.4 mm×13 mm size. 42,576 oligo included […] genes which are known their functions and 5,431 transcripts and EST sequences which are unknown their functions. 10-50 μg of total RNA was added in oligo-dT primer, reverse transcriptase, dNTP, Cy3-dUTP and Cy5-dUTP, and reverse-transcripted according to the kit manufacturer's recommendations. The resultant was purified using cartridge, dried and dissolved in hybridization buffer solution (30 μL). The microarray was placed in hybridization cassette, heated at 95-100° C. for 5 min, mixed independently to each of RNA labeled with Cy3 and Cy5, and hybridized at 45° C. for 18 hrs. The slide was washed twice in solution containing 1×SSC and 0.1% SDS for 5 min, washed in 1×SSC for 5 min and dried to analyze.
(§4) The profile for olfactory receptors in which the expression was regulated by more than 2-fold change due to intake of odor components at each tissue was shown in Tables 5. As a result, it was determined that various types of odor components having anti-obesity efficacy regulated a plurality of olfactory receptors in peripheral tissues.

[3] = system: olfactory receptors in visceral fat and liver tissues; experiment: OligoDNA microarray, visceral fat and liver tissues of HFD mice fed odor components (tissue not separated in text); type: in vivo; settings: supplemented to mouse fed high-fat diet for 10 weeks
Excerpt: as §1, §2, §3, §4

[4] = system: obesity and metabolic diseases-related genes in visceral fat tissue; experiment: RT-PCR of obesity and metabolic diseases-related genes, visceral fat tissue; type: in vivo, mouse; settings: odor component-supplemented group to the HFD control group
Description: (§5) After adding 1 mL of Trizol agent (Invitrogen, USA) per 0.1 g of visceral fat or liver tissues, the mixture was homogenized and centrifuged at 12,000×g for 10 min at 4° C. The supernatant was transferred to a new tube and 200 μl of chloroform was added to the tube, followed by vortexing. The same procedure was repeated twice and then the supernatant was transferred to a new tube, followed by addition of isopropanol and the supernatant at 1:1 ratio. The mixture was vigorously shaken 10 times and then incubated for 10 min at room temperature, followed by centrifugation at 12,000×g for 10 min at 4° C. to remove the supernatant. After adding 1 mL of 70% ethanol to the remaining pellet, it was centrifuged at 7,500×g for 5 min at 4° C. After removing the ethanol, the RNA pellet contained in the tube was dried for 5 min at 4° C. and dissolved in nuclease-free water. The RNA sample concentration was measured at a wavelength of 260 nm and 280 nm using a UV/VIS spectrophotometer (Beckman coulter, DU730) and the integrity of RNA sample was verified by agarose gel electrophoresis. The RNA sample obtained from the visceral fat or liver tissues was trasnscribed using oligo dT primer and reverse transcriptase (GIBCO BRL, Gaithersburg, Md., USA) to synthesize cDNA. The PCR amplification was performed using the cDNA as templates and primers complementary to cDNA [NT] flanking sequence. 1 μl of the amplified products were resolved on agarose gel electrophoresis to verify DNA band.

[5] = system: obesity and metabolic diseases-related genes in liver tissue; experiment: RT-PCR of obesity and metabolic diseases-related genes, liver tissue; type: in vivo, mouse; settings: odor component-supplemented group to the HFD control group
Description: as §5

[6] = system: HSL (hormone sensitive lipase); experiment: Western blotting, protein phosphorylation of HSL; type: in vivo, mouse; settings: odor component-supplemented group to the HFD control group
Description: (§6) A certain amount of visceral fat or liver tissues in mortar was homogenized with liquid nitrogen and cell lysis buffer. The mixture was transferred to a new tube, followed by vortexing. After centrifugation at 13,000×g for 20 min at 4° C., the middle layer of the tube was obtained and proteins were quantified by Bradford method. 50 μg of protein was electrophorized to SDS polyacrylamide gel, followed by electroblotting to PVDF hyper film. The protein was reacted using an appropriate antibody for the protein and detected by ECL, whereby insulin resistance, adipocyte differentiation, lipid metabolism or energy consumption-related mechanism of phytochemical components was investigated in the protein level.
(§7) In order to verify this, protein phosphorylations of HSL (hormone sensitive lipase), CREB (cAMP-responsive element binding protein) and AKT (v-akt murine thymoma viral oncogene) were evaluated by western blotting analysis.

[7] = system: CREB (cAMP-responsive element binding protein); experiment: Western blotting, protein phosphorylation of CREB; type: in vivo, mouse; settings: odor component-supplemented group to the HFD control group
Description: as §6, §7

[8] = system: AKT (v-akt murine thymoma viral oncogene); experiment: Western blotting, protein phosphorylation of AKT; type: in vivo, mouse; settings: odor component-supplemented group to the HFD control group
Description: as §6, §7

Compound: C/C=C1/[C@H](O[C@@H]2O[C@H](CO)[C@@H](O)[C@H](O)[C@H]2O)OC=C(C(=O)OC)[C@H]1CC(=O)OCCc1ccc(O)c(O)c1 [oleuropein]
- Olfr290 expression fold change to HFD group [1]: 2.32
- Olfr341 expression fold change to HFD group [1]: 0.3
- Olfr495 expression fold change to HFD group [1]: 0.21
- Olfr520 expression fold change to HFD group [1]: 2.08
- Olfr907 expression fold change to HFD group [1]: 0.49
- Olfr971 expression fold change to HFD group [1]: 2.37
- Olfr1046 expression fold change to HFD group [1]: 2.01
- Olfr1104 expression fold change to HFD group [1]: 4.39
- Olfr1447 expression fold change to HFD group [1]: 2.33
- Olfr341 expression fold change to HFD group ([1]; listed as Oleuropein): 0.30
- Olfr38 expression fold change to HFD group [2]: 2.35
- Olfr275 expression fold change to HFD group [2]: 2.49
- Olfr1136 expression fold change to HFD group [2]: 0.49
- Olfr1204 expression fold change to HFD group [2]: 2.21
- Olfr1214 expression fold change to HFD group [2]: 2.17
- Olfr1317 expression fold change to HFD group [2]: 2.89
- expression of olfactory receptor 38 increased [3]: more than 2 fold change
- expression of olfactory receptor 275 increased [3]: more than 2 fold change
- expression of olfactory receptor 290 increased [3]: more than 2 fold change
- expression of olfactory receptor 341 decreased [3]: more than 2 fold change
- expression of olfactory receptor 495 decreased [3]: more than 2 fold change
- expression of olfactory receptor 520 increased [3]: more than 2 fold change
- expression of olfactory receptor 907 decreased [3]: more than 2 fold change
- expression of olfactory receptor 971 increased [3]: more than 2 fold change
- expression of olfactory receptor 1046 increased [3]: more than 2 fold change
- expression of olfactory receptor 1104 increased [3]: more than 2 fold change
- expression of olfactory receptor 1136 decreased [3]: more than 2 fold change
- expression of olfactory receptor 1204 increased [3]: more than 2 fold change
- expression of olfactory receptor 1214 increased [3]: more than 2 fold change
- expression of olfactory receptor 1317 increased [3]: more than 2 fold change
- expression of olfactory receptor 1447 increased [3]: more than 2 fold change
- C/EBPα gene expression, decrease (change rate) [4]: 22% decrease
- CPT1 gene expression, increase (change rate) [4]: 50% increase^
- FAS gene expression, decrease (change rate) [4]: 65 decrease %
- IL-6 gene expression, decrease (change rate) [4]: 78% decrease
- PGC1α gene expression, increase (change rate) [4]: 210% increase ^
- PPARγ2 gene expression, decrease (change rate) [4]: 35% decrease
- SIRT1 gene expression, increase (change rate) [4]: 98% increase^
- TNFα gene expression, decrease (change rate) [4]: 66% decrease
- UCP1 gene expression, increase (change rate) [4]: 450% increase ^
- UCP3 gene expression, increase (change rate) [4]: 82% increase^
- aP2 gene expression, decrease (change rate) [4]: 26% decrease
- C/EBPα gene expression, decrease (change rate) [5]: 16% decrease
- CPT1 gene expression, increase (change rate) [5]: 33% increase^
- FAS gene expression, decrease (change rate) [5]: 40% decrease
- IL-6 gene expression, decrease (change rate) [5]: 62% decrease
- PPARγ2 gene expression, decrease (change rate) [5]: 94% decrease
- TNFα gene expression, decrease (change rate) [5]: 60% decrease
- aP2 gene expression, decrease (change rate) [5]: 29% decrease
- HSL phosphorylation, increase (change rate) [6]: 52% increase
- CREB phosphorylation, increase (change rate) [7]: 60% increase
- AKT phosphorylation, increase (change rate) [8]: 59% increase
